Legend:
BRD4 BD1 = molecular target: T1, BRD4 BD1 (Homo sapiens, UniProt O60885); test: NanoBRET bromodomain assay, NanoLuc-BRD4-BD1 in HEK293 cells; type: binding
T1 construct: HEK293 cells were transfected using NanoLuc-BRD4-BD1 or NanoLuc-BRD4-BD2 fusion vectors
Protocol: Exemplary compounds of the disclosure are active against BRD4 BD2 and selective over BRD4 BD1. BRD4 is a representative example of the BET family, as the binding sites of all BET family members are structurally similar. […] IC50s and fold selectivity's are determined as described below and are represented in Table 1.
(§1) Plates were then incubated at 37° C.+5% CO2 incubator for 2 hours.
(§2) Fold Selectivity Calculated (IC50 BD1/IC50 BD2).

BRD4 BD2 = molecular target: T2, BRD4 BD2 (Homo sapiens, UniProt O60885); test: NanoBRET bromodomain assay, NanoLuc-BRD4-BD2 in HEK293 cells; type: binding; conditions: for Fold Selectivity BRD4 BD1/BD2: IC50 BD1/IC50 BD2, qualitative if an IC50 is at the upper limit
T2 construct: HEK293 cells were transfected using NanoLuc-BRD4-BD1 or NanoLuc-BRD4-BD2 fusion vectors
Protocol: as §1, §2

SMILES	IC50 (BRD4 BD1)	IC50 (BRD4 BD2)	Fold Selectivity BRD4 BD1/BD2 (BRD4 BD2)
Cc1cccc(C)c1Oc1cn(C)c(=O)cc1-c1cn(C)c(=O)c2[nH]c(-c3cnc(C(C)C)s3)cc12 [Example 54, 4-(5-(2,6-dimethylphenoxy)-1-methyl-2-oxo-1,2-dihydropyridin-4-yl)-2-(2-isopropylthiazol-5-yl)-6-methyl-1,6-dihydro-7H-pyrrolo[2,3-c]pyridin-7-one]	> 1000 nM	< 10 nM	xxxx (Fold >1000)
Cc1cccc(C)c1Oc1cn(C)c(=O)cc1-c1cn(C)c(=O)c2[nH]c(-c3cc(F)cc(F)c3F)cc12 [Example 55, 4-(5-(2,6-dimethylphenoxy)-1-methyl-2-oxo-1,2-dihydropyridin-4-yl)-6-methyl-2-(2,3,5-trifluorophenyl)-1,6-dihydro-7H-pyrrolo[2,3-c]pyridin-7-one]	> 1000 nM	< 10 nM	xxxx (Fold >1000)
COc1cccc(-c2cc3c(-c4cc(=O)n(C)cc4Oc4c(C)cccc4C)cn(C)c(=O)c3[nH]2)c1F [Example 56, 4-(5-(2,6-dimethylphenoxy)-1-methyl-2-oxo-1,2-dihydropyridin-4-yl)-2-(2-fluoro-3-methoxyphenyl)-6-methyl-1,6-dihydro-7H-pyrrolo[2,3-c]pyridin-7-one]	> 1000 nM	< 10 nM	xxxx (Fold >1000)
Cc1cccc(C)c1Oc1cn(C)c(=O)cc1-c1cn(C)c(=O)c2[nH]c(-c3cccc(CO)c3F)cc12 [Example 57, 4-(5-(2,6-dimethylphenoxy)-1-methyl-2-oxo-1,2-dihydropyridin-4-yl)-2-(2-fluoro-3-(hydroxymethyl)phenyl)-6-methyl-1,6-dihydro-7H-pyrrolo[2,3-c]pyridin-7-one]	> 1000 nM	< 10 nM	xxxx (Fold >1000)
Cc1cccc(C)c1Oc1cn(C)c(=O)cc1-c1cn(C)c(=O)c2[nH]c(-c3ccc(CO)cc3F)cc12 [Example 58, 4-(5-(2,6-dimethylphenoxy)-1-methyl-2-oxo-1,2-dihydropyridin-4-yl)-2-(2-fluoro-4-(hydroxymethyl)phenyl)-6-methyl-1,6-dihydro-7H-pyrrolo[2,3-c]pyridin-7-one]	> 1000 nM	< 10 nM	xxxx (Fold >1000)
Cn1cc(-c2cc(=O)n(CCOC(F)(F)F)cc2-c2ccccc2)c2cc(-c3cnn(C(F)(F)F)c3)[nH]c2c1=O [Example 59, 6-methyl-4-(2-oxo-5-phenyl-1-(2-(trifluoromethoxy)ethyl)-1,2-dihydropyridin-4-yl)-2-(1-(trifluoromethyl)-1H-pyrazol-4-yl)-1,6-dihydro-7H-pyrrolo[2,3-c]pyridin-7-one]	> 1000 nM	50 to 200 nM	xx (Fold >50 and ≤200)
Cn1cc(-c2cc(=O)n(CCO)cc2-c2ccccc2)c2cc(-c3cnn(C(F)(F)F)c3)[nH]c2c1=O [Example 60, 4-(1-(2-hydroxyethyl)-2-oxo-5-phenyl-1,2-dihydropyridin-4-yl)-6-methyl-2-(1-(trifluoromethyl)-1H-pyrazol-4-yl)-1,6-dihydro-7H-pyrrolo[2,3-c]pyridin-7-one]	> 1000 nM	10 to 50 nM	xxx (Fold >200 and ≤1000)
CN(C)CCn1cc(-c2ccccc2)c(-c2cn(C)c(=O)c3[nH]c(-c4cnn(C(F)(F)F)c4)cc23)cc1=O.O=CO [Example 61, 4-(1-(2-(dimethylamino)ethyl)-2-oxo-5-phenyl-1,2-dihydropyridin-4-yl)-6-methyl-2-(1-(trifluoromethyl)-1H-pyrazol-4-yl)-1,6-dihydro-7H-pyrrolo[2,3-c]pyridin-7-one formate]	50 to 500 nM	< 10 nM	x (Fold >2 and ≤50)
